Results: ChEMBL document CHEMBL1255386, “Early viral kinetics of telbivudine and entecavir: results of a 12-week randomized exploratory study with patients with HBeAg-positive chronic hepatitis B” (Antimicrob Agents Chemother, 2010)

Experiments:
Hepatitis B virus [1] = assay: Antiviral activity against Hepatitis B virus in HBeAg-positive chronic hepatitis B patient assessed as HBV DNA level in serum at 600 mg/day after 12 weeks (reference value: 10.29 log10copies/ml); type: functional
Homo sapiens [2] = organism: Homo sapiens; assay: Hepatotoxicity in HBeAg-positive chronic hepatitis B patient assessed as reduction in alanine aminotransferase level at 0.5 mg/day after 12 weeks (reference value: 170.2 IU/liter); type: toxicity, organism-based; settings: in vivo, 2016 h
Hepatitis B virus [3] = assay: Antiviral activity against Hepatitis B virus in HBeAg-positive chronic hepatitis B patient assessed as mean viral clearance rate at 0.5 mg/day; type: functional
Hepatitis B virus [4] = assay: Antiviral activity against Hepatitis B virus in HBeAg-positive chronic hepatitis B patient assessed as mean rate of infected cell loss at 0.5 mg/day; type: functional
Hepatitis B virus [5] = assay: Antiviral activity against Hepatitis B virus in HBeAg-positive chronic hepatitis B patient assessed as mean efficiency factor of blocking virus production at 0.5 mg/day; type: functional
Homo sapiens [6] = organism: Homo sapiens; assay: Toxicity in HBeAg-positive chronic hepatitis B patient assessed as increase in ALT level at 0.5 mg/day; type: organism-based; settings: in vivo
Homo sapiens [7] = organism: Homo sapiens; assay: Toxicity in HBeAg-positive chronic hepatitis B patient assessed as upper respiratory tract infection at 0.5 mg/day; type: organism-based; settings: in vivo
Homo sapiens [8] = organism: Homo sapiens; assay: Toxicity in HBeAg-positive chronic hepatitis B patient assessed as chest discomfort at 0.5 mg/day; type: organism-based; settings: in vivo
Homo sapiens [9] = organism: Homo sapiens; assay: Toxicity in HBeAg-positive chronic hepatitis B patient assessed as abdominal discomfort at 0.5 mg/day; type: organism-based, Abdomen; settings: in vivo
Homo sapiens [10] = organism: Homo sapiens; assay: Toxicity in HBeAg-positive chronic hepatitis B patient assessed as upper abdominal pain at 0.5 mg/day; type: organism-based, Abdomen; settings: in vivo
Homo sapiens [11] = organism: Homo sapiens; assay: Toxicity in HBeAg-positive chronic hepatitis B patient assessed as increase in AST level at 0.5 mg/day; type: organism-based; settings: in vivo
Homo sapiens [12] = organism: Homo sapiens; assay: Toxicity in HBeAg-positive chronic hepatitis B patient assessed as conjunctival hypermia at 0.5 mg/day; type: organism-based, Conjunctiva; settings: in vivo
Homo sapiens [13] = organism: Homo sapiens; assay: Toxicity in HBeAg-positive chronic hepatitis B patient assessed as dyspnea at 0.5 mg/day; type: organism-based; settings: in vivo
Homo sapiens [14] = organism: Homo sapiens; assay: Toxicity in HBeAg-positive chronic hepatitis B patient assessed as gingival bleeding at 0.5 mg/day; type: organism-based; settings: in vivo
Homo sapiens [15] = organism: Homo sapiens; assay: Toxicity in HBeAg-positive chronic hepatitis B patient assessed as hyperphosphatemia at 0.5 mg/day; type: organism-based; settings: in vivo
Homo sapiens [16] = organism: Homo sapiens; assay: Toxicity in HBeAg-positive chronic hepatitis B patient assessed as myalgia at 0.5 mg/day; type: organism-based; settings: in vivo
Homo sapiens [17] = organism: Homo sapiens; assay: Toxicity in HBeAg-positive chronic hepatitis B patient assessed as neutropenia at 0.5 mg/day; type: organism-based; settings: in vivo
Homo sapiens [18] = organism: Homo sapiens; assay: Toxicity in HBeAg-positive chronic hepatitis B patient assessed as thrombocytopenia at 0.5 mg/day; type: organism-based; settings: in vivo
Homo sapiens [19] = organism: Homo sapiens; assay: Toxicity in HBeAg-positive chronic hepatitis B patient assessed as increase in blood CK level at 0.5 mg/day; type: organism-based; settings: in vivo
Homo sapiens [20] = organism: Homo sapiens; assay: Toxicity in HBeAg-positive chronic hepatitis B patient assessed as nausea at 0.5 mg/day; type: organism-based; settings: in vivo
Homo sapiens [21] = assay: Toxicity in HBeAg-positive chronic hepatitis B patient assessed as facial edema at 0.5 mg/day; type: organism-based; settings: in vivo
Homo sapiens [22] = organism: Homo sapiens; assay: Toxicity in HBeAg-positive chronic hepatitis B patient assessed as headache at 0.5 mg/day; type: organism-based; settings: in vivo
Homo sapiens [23] = organism: Homo sapiens; assay: Toxicity in HBeAg-positive chronic hepatitis B patient assessed as hordeolum at 0.5 mg/day; type: organism-based; settings: in vivo
Homo sapiens [24] = organism: Homo sapiens; assay: Toxicity in HBeAg-positive chronic hepatitis B patient assessed as insomnia at 0.5 mg/day; type: organism-based; settings: in vivo
Homo sapiens [25] = organism: Homo sapiens; assay: Toxicity in HBeAg-positive chronic hepatitis B patient assessed as myringitis at 0.5 mg/day; type: organism-based; settings: in vivo
Homo sapiens [26] = organism: Homo sapiens; assay: Toxicity in HBeAg-positive chronic hepatitis B patient assessed as nasophayngitis at 0.5 mg/day; type: organism-based; settings: in vivo
Homo sapiens [27] = organism: Homo sapiens; assay: Toxicity in HBeAg-positive chronic hepatitis B patient assessed as proteinuria at 0.5 mg/day; type: organism-based; settings: in vivo
Homo sapiens [28] = organism: Homo sapiens; assay: Toxicity in HBeAg-positive chronic hepatitis B patient assessed as vaginal hemorrhage at 0.5 mg/day; type: organism-based; settings: in vivo
Homo sapiens [29] = organism: Homo sapiens; assay: Toxicity in HBeAg-positive chronic hepatitis B patient assessed as vomiting at 0.5 mg/day; type: organism-based; settings: in vivo
Homo sapiens [30] = organism: Homo sapiens; assay: Toxicity in HBeAg-positive chronic hepatitis B patient assessed as peripheral neuropathy at 0.5 mg/day; type: organism-based; settings: in vivo
Homo sapiens [31] = organism: Homo sapiens; assay: Toxicity in HBeAg-positive chronic hepatitis B patient assessed as muscular weakness at 0.5 mg/day; type: organism-based; settings: in vivo
Hepatitis B virus [32] = assay: Antiviral activity against Hepatitis B virus in HBeAg-positive chronic hepatitis B patient assessed as HBV DNA level in serum at 0.5 mg/day after 12 weeks (reference value: 9.72 log10copies/ml); type: functional
Homo sapiens [33] = organism: Homo sapiens; assay: Hepatotoxicity in HBeAg-positive chronic hepatitis B patient assessed as reduction in alanine aminotransferase level at 600 mg/day after 12 weeks (reference value: 163.1 IU/liter); type: toxicity, organism-based; settings: in vivo, 2016 h
Hepatitis B virus [34] = assay: Antiviral activity against Hepatitis B virus in HBeAg-positive chronic hepatitis B patient assessed as mean viral clearance rate at 600 mg/day; type: functional
Hepatitis B virus [35] = assay: Antiviral activity against Hepatitis B virus in HBeAg-positive chronic hepatitis B patient assessed as mean rate of infected cell loss at 600 mg/day; type: functional
Hepatitis B virus [36] = assay: Antiviral activity against Hepatitis B virus in HBeAg-positive chronic hepatitis B patient assessed as mean efficiency factor of blocking virus production at 600 mg/day; type: functional
Homo sapiens [37] = organism: Homo sapiens; assay: Toxicity in HBeAg-positive chronic hepatitis B patient assessed as increase in ALT level at 600 mg/day; type: organism-based; settings: in vivo
Homo sapiens [38] = organism: Homo sapiens; assay: Toxicity in HBeAg-positive chronic hepatitis B patient assessed as upper respiratory tract infection at 600 mg/day; type: organism-based; settings: in vivo
Homo sapiens [39] = organism: Homo sapiens; assay: Toxicity in HBeAg-positive chronic hepatitis B patient assessed as chest discomfort at 600 mg/day; type: organism-based; settings: in vivo
Homo sapiens [40] = organism: Homo sapiens; assay: Toxicity in HBeAg-positive chronic hepatitis B patient assessed as abdominal discomfort at 600 mg/day; type: organism-based, Abdomen; settings: in vivo
Homo sapiens [41] = organism: Homo sapiens; assay: Toxicity in HBeAg-positive chronic hepatitis B patient assessed as upper abdominal pain at 600 mg/day; type: organism-based, Abdomen; settings: in vivo
Homo sapiens [42] = organism: Homo sapiens; assay: Toxicity in HBeAg-positive chronic hepatitis B patient assessed as increase in AST level at 600 mg/day; type: organism-based; settings: in vivo
Homo sapiens [43] = organism: Homo sapiens; assay: Toxicity in HBeAg-positive chronic hepatitis B patient assessed as conjunctival hypermia at 600 mg/day; type: organism-based, Conjunctiva; settings: in vivo
Homo sapiens [44] = organism: Homo sapiens; assay: Toxicity in HBeAg-positive chronic hepatitis B patient assessed as dyspnea at 600 mg/day; type: organism-based; settings: in vivo
Homo sapiens [45] = organism: Homo sapiens; assay: Toxicity in HBeAg-positive chronic hepatitis B patient assessed as gingival bleeding at 600 mg/day; type: organism-based; settings: in vivo
Homo sapiens [46] = organism: Homo sapiens; assay: Toxicity in HBeAg-positive chronic hepatitis B patient assessed as hyperphosphatemia at 600 mg/day; type: organism-based; settings: in vivo
Homo sapiens [47] = organism: Homo sapiens; assay: Toxicity in HBeAg-positive chronic hepatitis B patient assessed as myalgia at 600 mg/day; type: organism-based; settings: in vivo
Homo sapiens [48] = organism: Homo sapiens; assay: Toxicity in HBeAg-positive chronic hepatitis B patient assessed as neutropenia at 600 mg/day; type: organism-based; settings: in vivo
Homo sapiens [49] = organism: Homo sapiens; assay: Toxicity in HBeAg-positive chronic hepatitis B patient assessed as thrombocytopenia at 600 mg/day; type: organism-based; settings: in vivo
Homo sapiens [50] = organism: Homo sapiens; assay: Toxicity in HBeAg-positive chronic hepatitis B patient assessed as increase in blood CK level at 600 mg/day; type: organism-based; settings: in vivo
Homo sapiens [51] = organism: Homo sapiens; assay: Toxicity in HBeAg-positive chronic hepatitis B patient assessed as nausea at 600 mg/day; type: organism-based; settings: in vivo
Homo sapiens [52] = assay: Toxicity in HBeAg-positive chronic hepatitis B patient assessed as facial edema at 600 mg/day; type: organism-based; settings: in vivo
Homo sapiens [53] = organism: Homo sapiens; assay: Toxicity in HBeAg-positive chronic hepatitis B patient assessed as headache at 600 mg/day; type: organism-based; settings: in vivo
Homo sapiens [54] = organism: Homo sapiens; assay: Toxicity in HBeAg-positive chronic hepatitis B patient assessed as hordeolum at 600 mg/day; type: organism-based; settings: in vivo
Homo sapiens [55] = organism: Homo sapiens; assay: Toxicity in HBeAg-positive chronic hepatitis B patient assessed as insomnia at 600 mg/day; type: organism-based; settings: in vivo
Homo sapiens [56] = organism: Homo sapiens; assay: Toxicity in HBeAg-positive chronic hepatitis B patient assessed as myringitis at 600 mg/day; type: organism-based; settings: in vivo
Homo sapiens [57] = organism: Homo sapiens; assay: Toxicity in HBeAg-positive chronic hepatitis B patient assessed as nasophayngitis at 600 mg/day; type: organism-based; settings: in vivo
Homo sapiens [58] = organism: Homo sapiens; assay: Toxicity in HBeAg-positive chronic hepatitis B patient assessed as proteinuria at 600 mg/day; type: organism-based; settings: in vivo
Homo sapiens [59] = organism: Homo sapiens; assay: Toxicity in HBeAg-positive chronic hepatitis B patient assessed as vaginal hemorrhage at 600 mg/day; type: organism-based; settings: in vivo
Homo sapiens [60] = organism: Homo sapiens; assay: Toxicity in HBeAg-positive chronic hepatitis B patient assessed as vomiting at 600 mg/day; type: organism-based; settings: in vivo
Homo sapiens [61] = organism: Homo sapiens; assay: Toxicity in HBeAg-positive chronic hepatitis B patient assessed as peripheral neuropathy at 600 mg/day; type: organism-based; settings: in vivo
Homo sapiens [62] = organism: Homo sapiens; assay: Toxicity in HBeAg-positive chronic hepatitis B patient assessed as muscular weakness at 600 mg/day; type: organism-based; settings: in vivo

Structure (SMILES): C=C1[C@H](CO)[C@@H](O)C[C@@H]1n1cnc2c(=O)[nH]c(N)nc21.O [ENTECAVIR]
- Activity (Hepatitis B virus [1]): 6.5
- Activity (Homo sapiens [2]): 116.3 IU/L
- Activity (Hepatitis B virus [3]): 1.002 day⁻¹
- Activity (Hepatitis B virus [4]): 0.071 day⁻¹
- Activity (Hepatitis B virus [5]): 99.2%
- Activity (Homo sapiens [6]): 1%
- Activity (Homo sapiens [7]): 2%
- Activity (Homo sapiens [8]): 1%
- Activity (Homo sapiens [9]): 0%
- Activity (Homo sapiens [10]): 0%
- Activity (Homo sapiens [11]): 0%
- Activity (Homo sapiens [12]): 0%
- Activity (Homo sapiens [13]): 0%
- Activity (Homo sapiens [14]): 0%
- Activity (Homo sapiens [15]): 0%
- Activity (Homo sapiens [16]): 0%
- Activity (Homo sapiens [17]): 0%
- Activity (Homo sapiens [18]): 0%
- Activity (Homo sapiens [19]): 3 patients
- Activity (Homo sapiens [20]): 2%
- Activity (Homo sapiens [21]): 1%
- Activity (Homo sapiens [22]): 1%
- Activity (Homo sapiens [23]): 1%
- Activity (Homo sapiens [24]): 1%
- Activity (Homo sapiens [25]): 1%
- Activity (Homo sapiens [26]): 1%
- Activity (Homo sapiens [27]): 1%
- Activity (Homo sapiens [28]): 1%
- Activity (Homo sapiens [29]): 1%
- Activity (Homo sapiens [30]): Non-toxic
- Activity (Homo sapiens [31]): Non-toxic

Structure (SMILES): Cc1cn([C@@H]2C[C@@H](O)[C@H](CO)O2)c(=O)[nH]c1=O [TELBIVUDINE]
- Activity (Hepatitis B virus [32]): 6.6
- Activity (Homo sapiens [33]): 108 IU/L
- Activity (Hepatitis B virus [34]): 0.809 day⁻¹
- Activity (Hepatitis B virus [35]): 0.075 day⁻¹
- Activity (Hepatitis B virus [36]): 99.1%
- Activity (Homo sapiens [37]): 3%
- Activity (Homo sapiens [38]): 1%
- Activity (Homo sapiens [39]): 1%
- Activity (Homo sapiens [40]): 1%
- Activity (Homo sapiens [41]): 1%
- Activity (Homo sapiens [42]): 1%
- Activity (Homo sapiens [43]): 1%
- Activity (Homo sapiens [44]): 1%
- Activity (Homo sapiens [45]): 1%
- Activity (Homo sapiens [46]): 1%
- Activity (Homo sapiens [47]): 1%
- Activity (Homo sapiens [48]): 1%
- Activity (Homo sapiens [49]): 1%
- Activity (Homo sapiens [50]): 0%
- Activity (Homo sapiens [51]): 0%
- Activity (Homo sapiens [52]): 0%
- Activity (Homo sapiens [53]): 0%
- Activity (Homo sapiens [54]): 0%
- Activity (Homo sapiens [55]): 0%
- Activity (Homo sapiens [56]): 0%
- Activity (Homo sapiens [57]): 0%
- Activity (Homo sapiens [58]): 0%
- Activity (Homo sapiens [59]): 0%
- Activity (Homo sapiens [60]): 0%
- Activity (Homo sapiens [61]): Non-toxic
- Activity (Homo sapiens [62]): Non-toxic
